Patent US12128028B2, “Heterocyclic sulfonamide derivatives and pharmaceutical uses thereof” (METRION BIOSCIENCES LIMITED, priority 2018, dated 2024)
pIC50: −log10 of the molar value.

Target: human Kv1.3 (Homo sapiens (Human), UniProt P22001)
Test: Kv1.3 potency evaluation, automated patch clamp electrophysiology (QPatch HT) in CHO-Kv1.3 cells
Type: cell-based
Conditions: whole-cell QPatch HT, % inhibition of charge, step to +30 mV, four concentrations, N≥3 cells, read-out: hKv1.3 IC50
Excerpt: Biological Assays Kv1.3 Potency Evaluation Electrophysiology Recordings
A proprietary Chinese hamster ovary cell line stably expressing exogenous human a-subunits of Kv1.3 (CHO-Kv1.3) channel, validated biophysically and pharmacologically in house, was used to assess the ability of test compounds to block Kv1.3 currents using automated patch clamp electrophysiology. The QPatch HT system (Sophion Bioscience A/S, Denmark) was used with the conventional whole-cell configuration. This system is an automated, chip-based planar patch clamp device allowing for up to 48 parallel independent experiments in one experimental assay run. Cells are added to each well and drawn by suction onto a small aperture to obtain a Gigaohm seal between the cell membrane and treated silicon surface, and whole-cell recordings initiated after access is achieved by suction and/or voltage pulses. The QPatch HT uses static perfusion, whereby a small volume of recording solution or drug is added to a reservoir on the chip and the solution perfuses across the cell through quartz-lined microfluidic channels; this solution is removed by capillary action when the next sample application is made.
CHO-Kv1.3 cells were prepared for experiments by dissociation from T175 cell culture flasks using trypsin-EDTA (0.05%), cells were kept in serum free media in the cell hotel on board the QPatch HT. These cells were sampled, washed and re-suspended in extracellular recording solution by the QPatch HT immediately before application to the recording well site on the chip. Experiments were performed using the following solutions; extracellular solution contained (in mM); 150 NaCl, 10 KCl, 1 MgCl2, 3 CaCl2), 10 Glucose and 10 HEPES (pH 7.4, NaOH) and intracellular solution contained (in mM); 20 KCl, 120 KF, 10 HEPES, 10 EGTA, 5 ATP (pH 7.2, KOH).
The potency (Inhibitory Concentration 50%, IC50) of synthesized compounds against Kv1.3 was determined from concentration-response relationships established by cumulatively applying four escalating concentrations of test compound to an individual cell and a minimum of N≥3 individual cells of data per compound were used to generate the IC50 value.
On achieving the whole-cell configuration; two additions of vehicle (0.1-0.3% DMSO v/v) were applied to each cell in two bolus additions with a two minute recording period between each addition (four minutes total recording time). Following the vehicle period, four concentrations of test sample were applied as two bolus additions per test concentration at two minute intervals, and the effects on current measured during the four minute recording period.
Currents were elicited using a single step voltage protocol. From a holding potential of −80 mV the cell is depolarised to +30 mV (500 ms) resulting in an outward current before finally repolarising the cell by returning to the holding potential. The command voltage was applied at a frequency of 0.067 Hz throughout the duration of the experiment. For each sweep of the voltage protocol membrane current and the passive properties of the individual cells were recorded by QPatch assay software (version 5.2). Cursors were placed to calculate the charge (integral of the current recorded during cursor interval) between 2-490 ms (0.4-99%) of the 500 ms step to +30 mV.
The % inhibition of charge for each test concentration application period was calculated as the reduction in mean charge at the end of each concentration test period relative to the charge value measured at the end of the control (i.e. vehicle) period. Sigmoidal concentration response curves (four parameter logistic curve) were fitted to the % inhibition rom which the IC50 was determined. Curve fits were constrained at 0 and 100%.

Sequence of human Kv1.3 (P22001 whole entry): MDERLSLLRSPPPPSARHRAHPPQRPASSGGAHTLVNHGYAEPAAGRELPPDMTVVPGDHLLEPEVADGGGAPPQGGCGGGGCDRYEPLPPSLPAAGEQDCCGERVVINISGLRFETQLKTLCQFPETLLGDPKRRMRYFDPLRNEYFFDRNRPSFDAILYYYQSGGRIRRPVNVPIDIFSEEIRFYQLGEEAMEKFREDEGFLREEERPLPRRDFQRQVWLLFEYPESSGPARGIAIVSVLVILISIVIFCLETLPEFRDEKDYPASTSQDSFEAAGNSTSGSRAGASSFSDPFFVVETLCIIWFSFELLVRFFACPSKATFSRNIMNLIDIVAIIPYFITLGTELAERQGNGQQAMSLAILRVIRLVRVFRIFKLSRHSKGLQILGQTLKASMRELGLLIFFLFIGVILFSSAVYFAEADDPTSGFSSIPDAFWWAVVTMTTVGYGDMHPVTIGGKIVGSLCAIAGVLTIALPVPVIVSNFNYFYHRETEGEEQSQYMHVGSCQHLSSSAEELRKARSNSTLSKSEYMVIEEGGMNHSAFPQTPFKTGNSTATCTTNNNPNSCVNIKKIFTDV

| SMILES | pIC50 |
| --- | --- |
| CC1(C)N=C(C23CC(N(Cc4ccc(Cl)cc4)S(=O)(=O)c4ccccc4)(C2)C3)N[C@H]1C(=O)NCCC(F)(F)F (mixture of isomers) [Example 2] | 7.52 |
| CN(CCC(F)(F)F)C(=O)[C@@H]1NC(C23CC(N(Cc4ccc(Cl)c(F)c4)S(=O)(=O)c4ccccc4)(C2)C3)=NC1(C)C (mixture of isomers) [Example 3] | 7.21 |
| CC1(C)N=C(C23CC(N(Cc4ccc(Cl)cc4)S(=O)(=O)CC4CC4)(C2)C3)N[C@H]1C(=O)NCCC(F)(F)F (mixture of isomers) [Example 4] | 7.10 |
| CC1(C)N=C(C23CC(N(Cc4ccc(Cl)c(F)c4)S(=O)(=O)c4ccccc4)(C2)C3)N[C@H]1C(=O)NCC1(F)CC1 (mixture of isomers) [Example 6] | 7.70 |
| CCCS(=O)(=O)N(Cc1ccc(Cl)cc1)C12CC(C3=NC(C)(C)[C@H](C(=O)NCCC(F)(F)F)N3)(C1)C2 (mixture of isomers) [Example 7] | 7.59 |
| CC1(C)N=C(C23CC(N(Cc4ccc(Cl)cc4)S(=O)(=O)c4ccoc4)(C2)C3)N[C@H]1C(=O)NCCC(F)(F)F (mixture of isomers) [Example 8] | 7.57 |
| CC1(C)N=C(C23CC(N(Cc4ccc(Cl)cc4F)S(=O)(=O)c4ccccc4)(C2)C3)N[C@H]1C(=O)NCCC(F)(F)F (mixture of isomers) [Example 9] | 7.55 |
| CCCCS(=O)(=O)N(Cc1ccc(Cl)cc1)C12CC(C3=NC(C)(C)[C@H](C(=O)NCCC(F)(F)F)N3)(C1)C2 (mixture of isomers) [Example 10] | 7.55 |
| CC1(C)N=C(C23CC(N(Cc4ccc(Cl)c(F)c4)S(=O)(=O)c4ccccc4)(C2)C3)N[C@H]1C(=O)NCC1CC1(F)F (mixture of isomers) [Example 11] | 7.55 |
| CC1(C)N=C(C23CC(N(Cc4ccc(Cl)cc4)S(=O)(=O)c4ccccc4)(C2)C3)N[C@H]1C(=O)NC12CC(C1)C2 (mixture of isomers) [Example 12] | 7.52 |
| CC1(C)N=C(C23CC(N(Cc4ccc(Cl)c(F)c4)S(=O)(=O)c4ccccc4)(C2)C3)N[C@H]1C(=O)NCCC(F)(F)F (mixture of isomers) [Example 13] | 7.43 |
| CC1(C)N=C(C23CC(N(Cc4ccc(Cl)c(F)c4)S(=O)(=O)c4ccccc4)(C2)C3)N[C@H]1C(=O)NCC1CC1(F)F (mixture of isomers) [Example 14] | 7.48 |
| CC(F)(F)CNC(=O)[C@@H]1NC(C23CC(N(Cc4ccc(Cl)c(F)c4)S(=O)(=O)c4ccccc4)(C2)C3)=NC1(C)C (mixture of isomers) [Example 15] | 7.48 |
| CC1(C)N=C(C23CC(N(Cc4cccc(Cl)c4)S(=O)(=O)c4ccccc4)(C2)C3)N[C@H]1C(=O)NCCC(F)(F)F (mixture of isomers) [Example 16] | 7.46 |
| CN(C(=O)[C@@H]1NC(C23CC(N(Cc4ccc(Cl)c(Cl)c4)S(=O)(=O)c4ccccc4)(C2)C3)=NC1(C)C)C12CC(C1)C2 (mixture of isomers) [Example 17] | 7.46 |
| CC1(C)N=C(C23CC(N(Cc4ccc(Cl)cc4)S(=O)(=O)c4cccs4)(C2)C3)N[C@H]1C(=O)NCCC(F)(F)F (mixture of isomers) [Example 18] | 7.44 |
| CCCNC(=O)[C@@H]1NC(C23CC(N(Cc4ccc(Cl)c(F)c4)S(=O)(=O)c4ccccc4)(C2)C3)=NC1(C)C (mixture of isomers) [Example 19] | 7.43 |
| CC1(C)N=C(C23CC(N(Cc4ccc(Cl)c(F)c4)S(=O)(=O)c4ccccc4)(C2)C3)N[C@H]1C(=O)NCCC1CC1 (mixture of isomers) [Example 20] | 7.43 |
| CC1(NC(=O)[C@@H]2NC(C34CC(N(Cc5ccc(Cl)c(F)c5)S(=O)(=O)c5ccccc5)(C3)C4)=NC2(C)C)CCC1 (mixture of isomers) [Example 21] | 7.42 |
| CC1(C)N=C(C23CC(N(Cc4ccc(Cl)c(F)c4)S(=O)(=O)c4ccccc4)(C2)C3)N[C@H]1C(=O)NC[C@H]1CC1(F)F (mixture of isomers) [Example 22] | 7.41 |

| SMILES | pIC50 |
| --- | --- |
| CC1(C)N=C(C23CC(N(Cc4ccc(F)cc4)S(=O)(=O)c4ccccc4)(C2)C3)N[C@H]1C(=O)NCCC(F)(F)F (mixture of isomers) [Example 23] | 7.40 |
| CC1(C)N=C(C23CC(N(Cc4ccc(F)c(F)c4)S(=O)(=O)c4ccccc4)(C2)C3)N[C@H]1C(=O)NCCC(F)(F)F (mixture of isomers) [Example 24] | 7.40 |
| CC1(C)N=C(C23CC(N(Cc4ccccc4)S(=O)(=O)c4ccccc4)(C2)C3)N[C@H]1C(=O)NCCC(F)(F)F (mixture of isomers) [Example 25] | 7.40 |
| CC1(C)N=C(C23CC(N(Cc4ccc(Cl)c(F)c4)S(=O)(=O)c4ccccc4)(C2)C3)N[C@H]1C(=O)NCC1(C(F)(F)F)CC1 (mixture of isomers) [Example 26] | 7.27 |
| C[C@@H]1CC(F)(F)CN1C(=O)[C@@H]1NC(C23CC(N(Cc4ccc(Cl)c(F)c4)S(=O)(=O)c4ccccc4)(C2)C3)=NC1(C)C (mixture of isomers) [Example 27] | 7.40 |
| CC(C)(F)CNC(=O)[C@@H]1NC(C23CC(N(Cc4ccc(Cl)c(Cl)c4)S(=O)(=O)c4ccccc4)(C2)C3)=NC1(C)C (mixture of isomers) [Example 28] | 7.40 |
| CN(C(=O)[C@@H]1NC(C23CC(N(Cc4ccc(Cl)c(Cl)c4)S(=O)(=O)c4ccccc4)(C2)C3)=NC1(C)C)C1CC(F)(F)C1 (mixture of isomers) [Example 29] | 7.40 |
| CC1(C)N=C(C23CC(N(Cc4ccc(Cl)c(F)c4)S(=O)(=O)c4ccccc4)(C2)C3)N[C@H]1C(=O)N1CCC12CCC2 (mixture of isomers) [Example 30] | 7.39 |
| CC1(C)N=C(C23CC(N(Cc4ccc(Cl)c(F)c4)S(=O)(=O)c4ccccc4)(C2)C3)N[C@H]1C(=O)N1CCCCC1 (mixture of isomers) [Example 31] | 7.38 |
| CCCS(=O)(=O)N(Cc1ccc(Cl)c(Cl)c1)C12CC(C3=NC(C)(C)[C@H](C(=O)NC45CC(C4)C5)N3)(C1)C2 (mixture of isomers) [Example 32] | 7.37 |
| CN(C(=O)[C@@H]1NC(C23CC(N(Cc4ccc(Cl)c(F)c4)S(=O)(=O)c4ccccc4)(C2)C3)=NC1(C)C)C12CC(C1)C2 (mixture of isomers) [Example 33] | 7.37 |
| C[C@@H](NC(=O)[C@@H]1NC(C23CC(N(Cc4ccc(Cl)c(F)c4)S(=O)(=O)c4ccccc4)(C2)C3)=NC1(C)C)C(F)(F)F (mixture of isomers) [Example 34] | 7.33 |
| CC(C)(F)CNC(=O)[C@@H]1NC(C23CC(N(Cc4ccc(Cl)c(F)c4)S(=O)(=O)c4ccccc4)(C2)C3)=NC1(C)C (mixture of isomers) [Example 35] | 7.36 |
| CC1(C)N=C(C23CC(N(Cc4ccc(Cl)c(F)c4)S(=O)(=O)c4ccccc4)(C2)C3)N[C@H]1C(=O)NCC1(F)CCC1 (mixture of isomers) [Example 36] | 7.35 |
| CC1(C)N=C(C23CC(N(Cc4ccc(Cl)cc4)S(=O)(=O)c4ccccc4)(C2)C3)N[C@H]1C(=O)NCC1CC(F)(F)C1 (mixture of isomers) [Example 37] | 7.35 |
| CN(C(=O)[C@@H]1NC(C23CC(N(Cc4ccc(Cl)c(F)c4)S(=O)(=O)c4ccccc4)(C2)C3)=NC1(C)C)C1CC(C(F)F)C1 (mixture of isomers) [Example 38] | 7.35 |
| CC1(C)N=C(C23CC(N(Cc4ccc(Cl)cc4)S(=O)(=O)c4ccccc4)(C2)C3)N[C@H]1C(=O)NC[C@H]1CC1(F)F (mixture of isomers) [Example 39] | 7.35 |
| CC1(C)N=C(C23CC(N(Cc4cccc(F)c4)S(=O)(=O)c4ccccc4)(C2)C3)N[C@H]1C(=O)NCCC(F)(F)F (mixture of isomers) [Example 40] | 7.34 |
| CC1(C)N=C(C23CC(N(Cc4ccc(Cl)cc4)S(=O)(=O)c4ccco4)(C2)C3)N[C@H]1C(=O)NCCC(F)(F)F (mixture of isomers) [Example 41] | 7.34 |
| CC1(C)N=C(C23CC(N(Cc4ccc(Cl)cc4)S(=O)(=O)C4CCCCC4)(C2)C3)N[C@H]1C(=O)NCCC(F)(F)F (mixture of isomers) [Example 42] | 7.34 |
